# What was measured:
# [1] = human gut metagenome, 24 h, 2 µM
# [2] = human gut metagenome, 24 h, 2 µM; remark: listed apart in the source
# [3] = human gut metagenome, 24 h, 2 µM; remark: listed apart in the source
# [4] = (§1) The drug is tested on Z-029 corresponding to rat gut metagenome with ENA study accession number: PRJEB37062 and ENA sample accession number: ERS12561828 for biotransformation under anaerobic condition. The drug concentrations were measured over 9 timepoints collected between 0 and 24 hours of incubation by liquid-chromatography-coupled mass spectrometry (LC–MS); details: 2 µM
# [5] = human gut metagenome, 24 h, 2 µM; remark: listed apart in the source
# [6] = human gut metagenome, 24 h, 2 µM; remark: listed apart in the source
# [7] = human gut metagenome, 24 h, 2 µM; remark: listed apart in the source
# [8] = human gut metagenome, 24 h, 2 µM; remark: listed apart in the source
# [9] = human gut metagenome, 24 h, 2 µM; remark: listed apart in the source
# [10] = as §1, with “on Z-030” for “on Z-029”, “to mouse” for “to rat”, “number: ERS12561829” for “number: ERS12561828”; details: 2 µM
# [11] = as §1, with “Z-012” for “Z-029”, “to” for “to rat gut”, “ERS12561812” for “ERS12561828”; details: 2 µM
# [12] = as §1, with “on WLS-310” for “on Z-029”, “to human” for “to rat”, “number: ERS12561785” for “number: ERS12561828”; details: 2 µM
# [13] = human gut metagenome, 24 h, 2 µM; remark: listed apart in the source
# [14] = as §1, with “on WLS-039” for “on Z-029”, “to human” for “to rat”, “number: ERS12561746” for “number: ERS12561828”; details: 2 µM
# [15] = as §1, with “on WLS-090” for “on Z-029”, “to human” for “to rat”, “number: ERS12561753” for “number: ERS12561828”; details: 2 µM
# [16] = as §1, with “Z-019” for “Z-029”, “ERS12561818” for “ERS12561828”; details: 2 µM
# [17] = human gut metagenome, 24 h, 2 µM; remark: listed apart in the source
# [18] = as §1, with “on WLS-069” for “on Z-029”, “to human” for “to rat”, “number: ERS12561748” for “number: ERS12561828”; details: 2 µM
# [19] = human gut metagenome, 24 h, 2 µM; remark: listed apart in the source
# [20] = human gut metagenome, 24 h, 2 µM; remark: listed apart in the source
# Also: call rule not given here.
Structure (SMILES),Bacterial Biotransformation [1],Bacterial Biotransformation [2],Bacterial Biotransformation [3],Bacterial Biotransformation [4],Bacterial Biotransformation [5],Bacterial Biotransformation [6],Bacterial Biotransformation [7],Bacterial Biotransformation [8],Bacterial Biotransformation [9],Bacterial Biotransformation [10],Bacterial Biotransformation [11],Bacterial Biotransformation [12],Bacterial Biotransformation [13],Bacterial Biotransformation [14],Bacterial Biotransformation [15],Bacterial Biotransformation [16],Bacterial Biotransformation [17],Bacterial Biotransformation [18],Bacterial Biotransformation [19],Bacterial Biotransformation [20]
Clc1cccc(Cl)c1N=C1NCCN1 [CLONIDINE],Compound NOT metabolized,Compound metabolized,Compound NOT metabolized,Compound NOT metabolized,Compound NOT metabolized,Compound metabolized,Compound NOT metabolized,Compound NOT metabolized,Compound NOT metabolized,Compound NOT metabolized,Compound metabolized,Compound metabolized,Compound metabolized,Compound NOT metabolized,Compound metabolized,Compound NOT metabolized,Compound metabolized,Compound metabolized,Compound NOT metabolized,Compound NOT metabolized
COC(=O)[C@H](c1ccccc1Cl)N1CCc2sccc2C1.O=S(=O)(O)O [CLOPIDOGREL BISULFATE],Compound metabolized,Compound metabolized,Compound metabolized,Compound NOT metabolized,Compound metabolized,Compound metabolized,Compound metabolized,Compound metabolized,Compound metabolized,Compound NOT metabolized,Compound metabolized,Compound metabolized,Compound metabolized,Compound NOT metabolized,Compound metabolized,Compound NOT metabolized,Compound metabolized,Compound metabolized,Compound metabolized,Compound metabolized
O=P1(N(CCCl)CCCl)NCCCO1 (stereo not given) [CYCLOPHOSPHAMIDE ANHYDROUS],Compound metabolized,Compound metabolized,Compound NOT metabolized,Compound NOT metabolized,Compound NOT metabolized,Compound NOT metabolized,Compound NOT metabolized,Compound NOT metabolized,Compound NOT metabolized,Compound NOT metabolized,Compound NOT metabolized,Compound metabolized,Compound metabolized,Compound NOT metabolized,Compound metabolized,Compound NOT metabolized,Compound NOT metabolized,Compound metabolized,Compound NOT metabolized,Compound NOT metabolized
Br.COc1ccc2c(c1)[C@]13CCCC[C@@H]1[C@H](C2)N(C)CC3.O [DEXTROMETHORPHAN HYDROBROMIDE],Compound NOT metabolized,Compound metabolized,Compound NOT metabolized,Compound NOT metabolized,Compound NOT metabolized,Compound metabolized,Compound NOT metabolized,Compound NOT metabolized,Compound NOT metabolized,Compound NOT metabolized,Compound NOT metabolized,Compound metabolized,Compound metabolized,Compound NOT metabolized,Compound metabolized,Compound NOT metabolized,Compound metabolized,Compound metabolized,Compound metabolized,Compound NOT metabolized
CC(=O)Nc1ccc(OC(C)=O)cc1 [DIACETAMATE],Compound metabolized,Compound metabolized,Compound metabolized,Compound metabolized,Compound metabolized,Compound metabolized,Compound metabolized,Compound metabolized,Compound metabolized,Compound metabolized,Compound metabolized,Compound metabolized,Compound metabolized,Compound metabolized,Compound metabolized,Compound metabolized,Compound metabolized,Compound metabolized,Compound metabolized,Compound metabolized
CCN(CC)CCOC(=O)C1(C2CCCCC2)CCCCC1 [DICYCLOMINE],Compound metabolized,Compound metabolized,Compound metabolized,Compound NOT metabolized,Compound metabolized,Compound NOT metabolized,Compound NOT metabolized,Compound NOT metabolized,Compound NOT metabolized,Compound NOT metabolized,Compound metabolized,Compound metabolized,Compound metabolized,Compound NOT metabolized,Compound metabolized,Compound NOT metabolized,Compound NOT metabolized,Compound metabolized,Compound metabolized,Compound metabolized
COc1ccc([C@@H]2Sc3ccccc3N(CCN(C)C)C(=O)[C@@H]2OC(C)=O)cc1 [DILTIAZEM],Compound metabolized,Compound metabolized,Compound NOT metabolized,Compound NOT metabolized,Compound metabolized,Compound metabolized,Compound metabolized,Compound metabolized,Compound metabolized,Compound NOT metabolized,Compound metabolized,Compound metabolized,Compound metabolized,Compound metabolized,Compound metabolized,Compound NOT metabolized,Compound metabolized,Compound metabolized,Compound NOT metabolized,Compound NOT metabolized
OCCN(CCO)c1nc(N2CCCCC2)c2nc(N(CCO)CCO)nc(N3CCCCC3)c2n1 [DIPYRIDAMOLE],Compound NOT metabolized,Compound metabolized,Compound NOT metabolized,Compound NOT metabolized,Compound NOT metabolized,Compound NOT metabolized,Compound NOT metabolized,Compound metabolized,Compound metabolized,Compound NOT metabolized,Compound NOT metabolized,Compound metabolized,Compound metabolized,Compound metabolized,Compound metabolized,Compound NOT metabolized,Compound metabolized,Compound metabolized,Compound metabolized,Compound NOT metabolized
COc1cc2nc(N3CCN(C(=O)C4COc5ccccc5O4)CC3)nc(N)c2cc1OC.CS(=O)(=O)O (stereo not given) [DOXAZOSIN MESYLATE],Compound NOT metabolized,Compound metabolized,Compound metabolized,Compound NOT metabolized,Compound NOT metabolized,Compound NOT metabolized,Compound NOT metabolized,Compound NOT metabolized,Compound metabolized,Compound NOT metabolized,Compound NOT metabolized,Compound metabolized,Compound metabolized,Compound NOT metabolized,Compound metabolized,Compound NOT metabolized,Compound NOT metabolized,Compound metabolized,Compound NOT metabolized,Compound metabolized
